Assay results: article PMC3034247 (Cell metabolism, 2010)
Where a chain is given by its changes, count along the chain named.

Assays:
Assay in all cases: [3H]cholesterol saturation binding, Ni-NTA capture, scintillation counting
NPC2 (NPC2-His10) [1] = molecular target: T1, NPC2 (NPC2-His10) (Homo sapiens, UniProt P61916)
T1 sequence (P61916 20-151): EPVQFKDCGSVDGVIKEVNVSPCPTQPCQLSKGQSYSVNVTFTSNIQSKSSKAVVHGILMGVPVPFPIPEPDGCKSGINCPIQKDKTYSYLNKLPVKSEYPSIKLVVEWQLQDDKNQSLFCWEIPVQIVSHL

NPC2 (NPC2-His10) [2] = molecular target: T2, NPC2 (NPC2-His10) (Homo sapiens, UniProt P61916, V81D)
T2 sequence (P61916 20-151 V81D): T1 sequence (P61916 20-151) with V62D

NPC2 (NPC2-His10) [3] = molecular target: T3, NPC2 (NPC2-His10) (Homo sapiens, UniProt P61916, V81A)
T3 sequence (P61916 20-151 V81A): T1 sequence (P61916 20-151) with V62A

Kd (NPC2 (NPC2-His10) [1]): 0.081 µM | Kd (NPC2 (NPC2-His10) [2]): 0.072 µM | Kd (NPC2 (NPC2-His10) [3]): 0.08 µM
SMILES: CC(C)CCC[C@@H](C)[C@H]1CC[C@H]2[C@@H]3CC=C4C[C@@H](O)CC[C@]4(C)[C@H]3CC[C@]12C [cholesterol]
